Experimental data published in patent US5258386A (priority 1991, dated 1993).

What was measured:
[1] = system: maximal electroshock seizures (MES); assay: Maximal electroshock seizure (MES) assay in rats, s.c. injection, tonic hindlimb extension (THE); type: in vivo, Male Sprague-Dawley rats; details: for % Responding (THE): s.c.; for ED50: sc, read-out: Anticonvulsant ED50
Experimental: The anticonvulsant activity of the present compounds was assessed by the method of inducing maximal electroshock seizures (MES) in rats using the standard testing protocol conditions hereinafter described:
Animals. Male Sprague-Dawley rats weighing 200-250 g obtained from Zivic Miller Laboratories, Alison Park, Pa., were used for all experiments. Upon delivery the animals were kept in individual pens housed in a temperature controlled laboratory. A standard 12-hour light-dark cycle was maintained. The animals were given food and water ad libitum.
Maximal electroshock seizure (MES) assay. Supramaximal (tonic hindlimb extension) seizures were induced in test rats by means of an electric shock apparatus. A current of 60 Hz and 50 mA was delivered transauricularly through miniature alligator clips attached to the pinna of each ear for 2.0 seconds. […] In general, MES causes a generalized convulsion characterized by an initial tonic forelimb extension (TFE) progressing immediately to tonic hindlimb extension (THE) followed by clonic jerking. The presence or absence of THE was recorded for each MES convulsion.
Experimental protocol. Two groups of animals with n=10 for each group were tested under the conditions described above. Compounds were administered to each test animal by a single subcutaneous injection. There were no signs of overt sedation, ataxia or motor impairment at any time during the MES assay after drug injection.

[2] = U.S. Pat. No. 4,552,962; cited from earlier work
[3] = U.S. Pat. Nos. 4,898,860 and 4,906,638; cited from earlier work
[4] = in vivo; cited from earlier work
[5] = elevated doses; cited from earlier work
[6] = in vivo, demethylation; dextrorphan is the major metabolite in man; cited from earlier work
[7] = Proconvulsant activity of dextromethorphan; details: doses above about 60 mg/kg, in mammals
[8] = in vivo; cited from earlier work; remark: listed apart in the source

Structure (SMILES): COc1ccc2c(c1)[C@@]13CCCC[C@H]1[C@@H](C2)N(C)CC3 [Compound 1, (+)-3-methoxy-N-methylmorphinan]
- % Responding (THE) ([1]; 15 mg/kg, rat MES): 70%
- % Responding (THE) ([1]; 30 mg/kg, rat MES): 70%
- % Responding (THE) ([1]; 60 mg/kg, rat MES): 30%
- inhibits seizures ([1]; about 60 mg/kg): about 70%
- ED50 ([1]; rat MES, single s.c. injection): 38 mg/kg
- antitussive activity [2]: potent antitussive agent
- potentiating effect on antiepileptic or antiseizure compounds [3]: potentiating effect
- anticonvulsant activity [4]: not very potent as an anticonvulsant agent
- proconvulsant [5]: becomes proconvulsant
- metabolism to dextrorphan [6]: metabolizes rapidly by demethylation in vivo
- proconvulsant activity [7]: exhibits proconvulsant activity

Structure (SMILES): CN(C)c1ccc2c(c1)C13CCCCC1C(C2)N(C)CC3 (single isomer, unassigned; (+)) [Compound 7, (+)-3,3-Dimethylamino-17-methylmorphinan sesquitartrate]
- % Responding (THE) ([1]; 25 mg/kg, rat MES): 65%
- ED50 ([1]; rat MES, single s.c. injection): > 25 mg/kg

Structure (SMILES): CN1CC[C@]23CCCC[C@H]2[C@H]1Cc1ccc(N)cc13.Cl.Cl [Compound 5, (+)-3-Amino-17-methylmorphinan di-HCl]
- % Responding (THE) ([1]; 12.5 mg/kg, rat MES): 100%
- % Responding (THE) ([1]; 25 mg/kg, rat MES): 40%
- ED50 ([1]; rat MES, single s.c. injection): 25 mg/kg

Structure (SMILES): CN1CC[C@]23CCCC[C@H]2[C@H]1Cc1ccc(O)cc13 [Compound 2, (+)-3-hydroxy-N-methylmorphinan]
- Anticonvulsant ED50 ([1]; rat MES, single s.c. injection): 5 mg/kg
- anticonvulsant activity [4]: some anticonvulsant activity
- behavioral side effects [8]: harmful behavioral side effects
